Laboratory results: paper PMC10451648 (Antibiotics, 2023)
Converted amounts (≈) assume the structure as drawn. “Also recorded” adds a separate entry of the source. Where two headings read alike, the source gives them in different places. Square brackets hold non-standard residues; d marks the D form. Peptide text beside a SMILES is read from it. Api = NC1(C(=O)O)CCNCC1; Aib = CC(C)(N)C(=O)O

Assays:
human red blood cells = assay: Hemolysis activity against red blood cells; details: human RBCs in 172 mM Tris-HCl pH 7.6, 30 min at 37 °C, absorbance 535 nm; DMSO = 0%, M-Lycotoxin = 100%; final peptide conc. 100 to 0.39
Protocol: AMPs primarily target microbial membranes, leading to their antimicrobial activity through membrane lysis. However, it is important to consider their potential effects on human cell membranes, as this could raise concerns regarding cytotoxicity. […] Hemolytic activity was assessed by measuring the absorption at 535 nm, which indicates the leakage of red blood cell cytoplasmic contents and hemoglobin.
Human red blood cells (RBCs) were supplied by the Japanese Red Cross Society (Tokyo, Japan). The hemolytic assay of the synthesized peptides was performed as previously reported. Briefly, 5.0 mL of the total erythrocytes were washed three times with 172 mM Tris-HCl buffer (pH = 7.6, wash buffer:WB) and 1.0 mL of precipitated erythrocytes was diluted with 9.0 mL of WB. Then, 0.5 mL of the suspension was diluted in WB, and 50 µL of RBC solution was incubated with 50 µL of each peptide for 30 min at 37 °C (final peptide conc. from 100 to 0.39 μM). The suspensions were then centrifuged at 400 rpm for 5 min. The absorbance of the supernatant was measured at a wavelength of 535 nm. M-Lycotoxin [22], which is a typical hemolytic toxic peptide derived from Wolf spider, was used as a positive control, and the absorbance of the sample from DMSO and M-Lycotoxin treatment was defined as 0 and 100%, respectively.

[1] = PBS without FBS
in vitro = details: 50% fetal bovine serum in PBS
Escherichia coli DH5α = assay type: cell-based; details: broth microdilution, 10^4 CFUs per mL, 18 h at 35 °C; MIC = lowest concentration that completely inhibited bacterial growth; final conc. 0.39 to 100
Protocol: (§1) The antimicrobial activities of peptides 1–8 against Gram-positive Staphylococcus aureus, Gram-negative Escherichia coli DH5α, Pseudomonas aeruginosa, and multidrug-resistant P. aeruginosa (MDRP) were evaluated. The minimum inhibitory concentration (MIC) against these bacteria was measured as an indicator of antimicrobial activity, and the results are discussed in Table 2.
(§2) One type of Gram-positive bacteria, S. aureus NBRC 13276, and three Gram-negative bacteria, E. coli DH5α, P. aeruginosa NBRC 13275, and MDRP, were selected for the evaluation of the antimicrobial activity of the synthesized peptides. The selected bacterial strains were obtained from the Biological Resource Center, NITE (NBRC; Tokyo, Japan), and Escherichia coli DH5α cells were purchased from BioDynamics Laboratory, Inc. (Tokyo, Japan). The antimicrobial activities of the tested peptides 1–8 against each stain were examined by the standard broth microdilution method, as previously reported. Briefly, the bacteria were seeded and grown overnight at 37 °C on Agar media for other organisms i (Agar medium) and then collected with the media for other organisms ii (liquid medium), according to the 17th revision of Japanese Pharmacopoeia. Next, 10 μL of the peptide solution per well was added to each well of a sterile 96-well plate, and 90 μL per well of inoculation was mixed with 10^4 CFUs (colony forming units) per mL and added to each well, and the plate was incubated for 18 h at 35 °C.

P. aeruginosa NBRC 13275 = assay type: cell-based, Pseudomonas aeruginosa; details: NBRC 13275, 18 h
Protocol: as §1, §2

S. aureus NBRC 13276 = assay type: cell-based, Staphylococcus aureus
Protocol: as §1, §2

[2] = test system: multidrug-resistant P. aeruginosa (MDRP); assay type: cell-based, Pseudomonas aeruginosa; details: multidrug-resistant (MDRP, 18 h)
Protocol: as §1, §2

Proteinase K = assay: 0.002% (v/v) Proteinase K; details: 37 °C, up to 24 h
[3] = broth microdilution, 10^4 CFUs per mL, 18 h at 35 °C, MIC = lowest concentration that completely inhibited bacterial growth, final conc. 0.39 to 100

Row | Compound | Hemolysis (concentration at which hemolytic activity is exhibited) (human red blood cells) [µM] | Stability in PBS [1] | remaining at 24 h (in vitro) [%] | residual amount after 24 h proteinase K treatment [%] | MIC, E. Coli DH5α, Gram(−) (Escherichia coli DH5α) [µM] | MIC, P. aeruginosa, Gram(−) (P. aeruginosa NBRC 13275) [µM] | MIC, S. aureus, Gram(+) (S. aureus NBRC 13276; [3]) [µM] | MIC, S. aureus, Gram(+) (S. aureus NBRC 13276; NBRC 13276, 18 h) [µM] | MIC, MDRP [2] [µM] | cleaved bond (Proteinase K)
1 | CC[C@H](C)[C@H](NC(=O)CN)C(=O)NC1(C(=O)N[C@@H](CCCCN)C(=O)N[C@@H](Cc2ccccc2)C(=O)N[C@@H](CC(C)C)C(=O)N[C@@H](CCCCN)C(=O)N[C@@H](CO)C(=O)NC(C)(C)C(=O)N[C@@H](CCCCN)C(=O)N[C@@H](CCCCN)C(=O)N[C@@H](Cc2ccccc2)C(=O)N[C@H](C(=O)N[C@@H](CCCCN)C(=O)NC(C)(C)C(=O)N[C@@H](Cc2ccccc2)C(=O)N[C@@H](CCCCN)C(N)=O)C(C)C)CCNCC1 [Peptide 2] (H-GI[Api]KFLKS[Aib]KKFVK[Aib]FK-NH2) | 12.5 | stable in PBS | 70 | > 60 | 3.125 (≈ 6.23 µg/mL) | 3.125 (≈ 6.23 µg/mL) | 12.5 (≈ 24.9 µg/mL) | – | – | –
2 | CC[C@H](C)[C@H](NC(=O)CN)C(=O)N[C@@H](CCCCN)C(=O)NC1(C(=O)N[C@@H](Cc2ccccc2)C(=O)N[C@@H](CC(C)C)C(=O)N[C@@H](CCCCN)C(=O)N[C@@H](CO)C(=O)NC(C)(C)C(=O)N[C@@H](CCCCN)C(=O)N[C@@H](CCCCN)C(=O)N[C@@H](Cc2ccccc2)C(=O)N[C@H](C(=O)N[C@@H](CCCCN)C(=O)NC(C)(C)C(=O)N[C@@H](Cc2ccccc2)C(=O)N[C@@H](CCCCN)C(N)=O)C(C)C)CCNCC1 [Peptide 3] (H-GIK[Api]FLKS[Aib]KKFVK[Aib]FK-NH2) | 25 | – | – | – | 3.125 (≈ 6.23 µg/mL) | 3.125 (≈ 6.23 µg/mL) | – | 25 (≈ 49.8 µg/mL) | – | –
3 | CC[C@H](C)[C@H](NC(=O)CN)C(=O)N[C@@H](CCCCN)C(=O)N[C@@H](CCCCN)C(=O)N[C@@H](Cc1ccccc1)C(=O)N[C@@H](CC(C)C)C(=O)NC1(C(=O)N[C@@H](CO)C(=O)NC(C)(C)C(=O)N[C@@H](CCCCN)C(=O)N[C@@H](CCCCN)C(=O)N[C@@H](Cc2ccccc2)C(=O)N[C@H](C(=O)N[C@@H](CCCCN)C(=O)NC(C)(C)C(=O)N[C@@H](Cc2ccccc2)C(=O)N[C@@H](CCCCN)C(N)=O)C(C)C)CCNCC1 [Peptide 4] (H-GIKKFL[Api]S[Aib]KKFVK[Aib]FK-NH2) | 12.5 | – | – | – | 1.56 (≈ 3.11 µg/mL) | 3.125 (≈ 6.23 µg/mL) | 12.5 (≈ 24.9 µg/mL) | – | 6.25 (≈ 12.5 µg/mL) | –
4 | CC[C@H](C)[C@H](NC(=O)CN)C(=O)N[C@@H](CCCCN)C(=O)N[C@@H](CCCCN)C(=O)N[C@@H](Cc1ccccc1)C(=O)N[C@@H](CC(C)C)C(=O)N[C@@H](CCCCN)C(=O)N[C@@H](CO)C(=O)NC(C)(C)C(=O)NC1(C(=O)N[C@@H](CCCCN)C(=O)N[C@@H](Cc2ccccc2)C(=O)N[C@H](C(=O)N[C@@H](CCCCN)C(=O)NC(C)(C)C(=O)N[C@@H](Cc2ccccc2)C(=O)N[C@@H](CCCCN)C(N)=O)C(C)C)CCNCC1 [Peptide 5] (H-GIKKFLKS[Aib][Api]KFVK[Aib]FK-NH2) | 50 | – | – | – | 1.56 (≈ 3.11 µg/mL) | 3.125 (≈ 6.23 µg/mL) | – | 25 (≈ 49.8 µg/mL) | 6.25 (≈ 12.5 µg/mL) | –
5 | CC[C@H](C)[C@H](NC(=O)CN)C(=O)N[C@@H](CCCCN)C(=O)N[C@@H](CCCCN)C(=O)N[C@@H](Cc1ccccc1)C(=O)N[C@@H](CC(C)C)C(=O)N[C@@H](CCCCN)C(=O)N[C@@H](CO)C(=O)NC(C)(C)C(=O)N[C@@H](CCCCN)C(=O)NC1(C(=O)N[C@@H](Cc2ccccc2)C(=O)N[C@H](C(=O)N[C@@H](CCCCN)C(=O)NC(C)(C)C(=O)N[C@@H](Cc2ccccc2)C(=O)N[C@@H](CCCCN)C(N)=O)C(C)C)CCNCC1 [Peptide 6] (H-GIKKFLKS[Aib]K[Api]FVK[Aib]FK-NH2) | 50 | – | – | – | 1.56 (≈ 3.11 µg/mL) | 3.125 (≈ 6.23 µg/mL) | – | 12.5 (≈ 24.9 µg/mL) | 6.25 (≈ 12.5 µg/mL) | –
6 | CC[C@H](C)[C@H](NC(=O)CN)C(=O)N[C@@H](CCCCN)C(=O)N[C@@H](CCCCN)C(=O)N[C@@H](Cc1ccccc1)C(=O)N[C@@H](CC(C)C)C(=O)N[C@@H](CCCCN)C(=O)N[C@@H](CO)C(=O)NC(C)(C)C(=O)N[C@@H](CCCCN)C(=O)N[C@@H](CCCCN)C(=O)N[C@@H](Cc1ccccc1)C(=O)N[C@H](C(=O)NC1(C(=O)NC(C)(C)C(=O)N[C@@H](Cc2ccccc2)C(=O)N[C@@H](CCCCN)C(N)=O)CCNCC1)C(C)C [Peptide 7] (H-GIKKFLKS[Aib]KKFV[Api][Aib]FK-NH2) | 12.5 | – | – | – | 1.56 (≈ 3.11 µg/mL) | 3.125 (≈ 6.23 µg/mL) | 12.5 (≈ 24.9 µg/mL) | – | 6.25 (≈ 12.5 µg/mL) | –
7 | CC[C@H](C)[C@H](NC(=O)CN)C(=O)N[C@@H](CCCCN)C(=O)N[C@@H](CCCCN)C(=O)N[C@@H](Cc1ccccc1)C(=O)N[C@@H](CC(C)C)C(=O)N[C@@H](CCCCN)C(=O)N[C@@H](CO)C(=O)NC(C)(C)C(=O)N[C@@H](CCCCN)C(=O)N[C@@H](CCCCN)C(=O)N[C@@H](Cc1ccccc1)C(=O)N[C@H](C(=O)N[C@@H](CCCCN)C(=O)NC(C)(C)C(=O)N[C@@H](Cc1ccccc1)C(=O)NC1(C(N)=O)CCNCC1)C(C)C [Peptide 8] (H-GIKKFLKS[Aib]KKFVK[Aib]F[Api]-NH2) | 100 | – | – | – | 3.125 (≈ 6.23 µg/mL) | 3.125 (≈ 6.23 µg/mL) | – | 12.5 (≈ 24.9 µg/mL) | 12.5 (≈ 24.9 µg/mL) | –
8 | H-GIKKFLKS[Aib]KKFVK[Aib]FK-NH2 | – | – | – | – | – | – | – | – | – | Phe5-Leu6, 24 h; also recorded: Phe16-Lys17
9 | H-Gly-Ile-Api-Lys-Phe-Leu-Lys-Ser-Aib-Lys-Lys-Phe-Val-Lys-Aib-Phe-Lys-NH2 | – | – | – | – | – | – | – | – | – | Phe16-Lys17, 24 h
10 | H-Gly-Ile-Lys-Api-Phe-Leu-Lys-Ser-Aib-Lys-Lys-Phe-Val-Lys-Aib-Phe-Lys-NH2 | – | – | – | – | – | – | – | – | – | Phe16-Lys17, 24 h
11 | H-Gly-Ile-Lys-Lys-Phe-Leu-Api-Ser-Aib-Lys-Lys-Phe-Val-Lys-Aib-Phe-Lys-NH2 | – | – | – | – | – | – | – | – | – | Phe16-Lys17, 24 h
